Measured values published in patent US11186576B2, “Pyrazolo[1,5-A][1,3,5]triazine and pyrazolo[1,5-A]pyrimidine derivatives as CDK inhibitors” (Aurigene Discovery Technologies Limited, priority 2015, dated 2021).

Biological target: CDK7/CycH/MNAT1 (Homo sapiens (Human), UniProt P50613)
Assay: Biochemical assay for CDK7 (TR-FRET kinase assay)
Settings: 60 min pre-incubation, 1 mM ATP; for inhibition at 10 µM: 10 μM compound, read-out: % inhibition @ 10 μM; for IC50: read-out: IC50
Procedure: The ability of compounds to inhibit CDK7 kinase activity was tested in a TR-FRET assay using 5 nM of CDK7/CycH/MNAT1 obtained from Invitrogen, USA. Test compounds were pre-incubated with the kinase at room temperature for 60 min. After incubation, substrate mix [100 nM Ultra-light MBP (Perkin Elmer, USA) and 1 mM ATP (Sigma)] was added. The above reaction was stopped by the addition of 40 mM EDTA after 60 minutes of kinase reaction. 1 nM Eu-labelled antiphospho-MBP antibody [Perkin Elmer, USA] was added, mixed well and the fluorescence emission at 615 nm and 665 nm [excitation at 340 nm] was measured. The final DMSO concentration in the assay was 1%. For IC50 determination, appropriate concentrations were made by ⅓^rd serial dilutions of 10 mM DMSO stock solution of test compound. All the fluorescence measurements were made in a Victor 3 Multilabel Counter [Perkin Elmer, USA]. The IC50 was determined by fitting the dose response data to sigmoidal curve fitting equation using GraphPad Prism software V5. To identify compounds that inhibit CDK7 irreversibly, time depended inhibition studies were carried by pre-incubating compound with the enzyme at three time points (20, 60 and 180 min) and carrying out assay as described above.

Chain of CDK7/CycH/MNAT1 (P50613 whole entry): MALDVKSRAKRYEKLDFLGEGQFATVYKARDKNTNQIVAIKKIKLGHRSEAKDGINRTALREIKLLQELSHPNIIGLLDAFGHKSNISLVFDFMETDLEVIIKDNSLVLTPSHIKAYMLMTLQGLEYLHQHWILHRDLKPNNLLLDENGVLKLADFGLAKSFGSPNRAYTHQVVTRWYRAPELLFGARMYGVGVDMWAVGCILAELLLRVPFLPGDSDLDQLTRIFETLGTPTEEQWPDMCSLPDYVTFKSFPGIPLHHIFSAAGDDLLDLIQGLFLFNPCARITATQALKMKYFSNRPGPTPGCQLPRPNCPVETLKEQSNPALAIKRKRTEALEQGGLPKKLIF
Chain of CDK7/CycH/MNAT1 (P51946 whole entry partner): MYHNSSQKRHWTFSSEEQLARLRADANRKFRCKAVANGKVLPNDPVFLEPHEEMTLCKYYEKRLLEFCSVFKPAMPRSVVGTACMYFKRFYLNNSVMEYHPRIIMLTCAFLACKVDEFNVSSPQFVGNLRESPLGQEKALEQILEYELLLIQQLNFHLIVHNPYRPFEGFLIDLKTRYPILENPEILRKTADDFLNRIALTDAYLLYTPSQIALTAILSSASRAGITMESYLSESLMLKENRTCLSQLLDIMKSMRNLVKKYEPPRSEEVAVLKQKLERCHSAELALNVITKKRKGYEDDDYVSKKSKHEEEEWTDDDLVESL
Chain of CDK7/CycH/MNAT1 (P51948 whole entry partner): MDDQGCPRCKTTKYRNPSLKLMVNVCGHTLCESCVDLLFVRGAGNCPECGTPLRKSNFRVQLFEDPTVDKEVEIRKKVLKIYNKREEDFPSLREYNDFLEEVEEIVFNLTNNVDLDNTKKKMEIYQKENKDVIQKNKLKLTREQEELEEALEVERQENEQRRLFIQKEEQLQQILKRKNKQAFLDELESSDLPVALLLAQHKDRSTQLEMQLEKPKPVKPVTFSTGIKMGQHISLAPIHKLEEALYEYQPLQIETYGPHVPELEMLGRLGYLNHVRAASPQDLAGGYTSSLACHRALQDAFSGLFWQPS

With `C=CC(=O)N1CCCCC1C(=O)Nc1cc(F)cc(CNc2nc(NC3CCOCC3)nc3c(C(C)C)cnn23)c1` (stereo not shown) [Compound 36, 1-acryloyl-N-(3-fluoro-5-(((8-isopropyl-2-((tetrahydro-2H-pyran-4-yl)amino)pyrazolo[1,5-a][1,3,5]triazin-4-yl)amino)methyl)phenyl)piperidine-2-carboxamide] the inhibition at 10 µM was 91% and the IC50 was 300 to 1000 nM.

`C=CC(=O)N1CCCCC1C(=O)Nc1ccc(F)c(CNc2nc(NC3CCOCC3)nc3c(C(C)C)cnn23)c1` (stereo not shown) [Compound 37, 1-acryloyl-N-(4-fluoro-3-(((8-isopropyl-2-((tetrahydro-2H-pyran-4-yl)amino)pyrazolo[1,5-a][1,3,5]triazin-4-yl)amino)methyl)phenyl)piperidine-2-carboxamide] gave an inhibition at 10 µM of 91% and an IC50 of under 300 nM.

`C=CC(=O)N[C@H]1CC[C@@H](C(=O)Nc2ccc(F)c(CNc3nc(NC4CCOCC4)nc4c(C(C)C)cnn34)c2)CC1` [Compound 39, (1,4-cis)-4-acrylamido-N-(4-fluoro-3-(((8-isopropyl-2-((tetrahydro-2H-pyran-4-yl)amino)pyrazolo[1,5-a][1,3,5]triazin-4-yl)amino)methyl)phenyl)cyclohexane-1-carboxamide] gave an inhibition at 10 µM of 76% and an IC50 of over 1000 nM.

With `C=CC(=O)N1CCOCC1C(=O)Nc1cncc(CNc2nc(NC3CCOCC3)nc3c(C(C)C)cnn23)c1` (stereo not shown) [Compound 40, 4-acryloyl-N-(5-(((8-isopropyl-2-((tetrahydro-2H-pyran-4-yl)amino)pyrazolo[1,5-a][1,3,5]triazin-4-yl)amino)methyl)pyridin-3-yl)morpholine-3-carboxamide] the inhibition at 10 µM was 99% and the IC50 was under 300 nM.

`C=CC(=O)Nc1cc(C(=O)Nc2cccc(CNc3nc(NC4CCOCC4)nc4c(C(C)C)cnn34)c2)ccc1C` [Compound 40A, 3-acrylamido-N-(3-(((8-isopropyl-2-((tetrahydro-2H-pyran-4-yl)amino)pyrazolo[1,5-a][1,3,5]triazin-4-yl)amino)methyl)phenyl)-4-methylbenzamide] was tested, and the IC50 was under 300 nM.

Work on `C=CC(=O)Nc1ccc(C)c(C(=O)Nc2cccc(CNc3nc(NC4CCOCC4)nc4c(C(C)C)cnn34)c2)c1` [Compound 40B, 5-acrylamido-N-(3-(((8-isopropyl-2-((tetrahydro-2H-pyran-4-yl)amino)pyrazolo[1,5-a][1,3,5]triazin-4-yl)amino)methyl)phenyl)-2-methylbenzamide] yielded an IC50 of under 300 nM.

`C=CC(=O)N1C(C)CCCC1C(=O)Nc1cccc(CNc2nc(NC3CCOCC3)nc3c(C(C)C)cnn23)c1` (stereo not shown) [Compound 40C, 1-acryloyl-N-(3-(((8-isopropyl-2-((tetrahydro-2H-pyran-4-yl)amino)pyrazolo[1,5-a][1,3,5]triazin-4-yl)amino)methyl)phenyl)-6-methylpiperidine-2-carboxamide] showed an IC50 of under 300 nM.

`C=CC(=O)N1CCCCC1C(=O)Nc1cccc(CNc2nc(N[C@H]3CCCOC3)nc3c(C(C)C)cnn23)c1` (stereo partly drawn) [Compound 40D, 1-acryloyl-N-(3-(((8-isopropyl-2-(((S)-tetrahydro-2H-pyran-3-yl)amino)pyrazolo[1,5-a][1,3,5]triazin-4-yl)amino)methyl)phenyl)piperidine-2-carboxamide] was tested, and the IC50 was 300 to 1000 nM.

With `C=CC(=O)N1CCC[C@H](NC(=O)c2cccc(CNc3nc(NC4CCOCC4)nc4c(C(C)C)cnn34)c2)C1` [Compound 41, (S)—N-(1-acryloylpiperidin-3-yl)-3-(((8-isopropyl-2-((tetrahydro-2H-pyran-4-yl)amino)pyrazolo[1,5-a][1,3,5]triazin-4-yl)amino)methyl)benzamide] the inhibition at 10 µM was 92% and the IC50 was 300 to 1000 nM.

Compound `C=CC(=O)N1CCC(C(=O)Nc2cc(CNc3nc(NC4CCOCC4)nc4c(C(C)C)cnn34)ccc2F)C1` (stereo not shown) [Compound 43, 1-acryloyl-N-(2-fluoro-5-(((8-isopropyl-2-((tetrahydro-2H-pyran-4-yl)amino)pyrazolo[1,5-a][1,3,5]triazin-4-yl)amino)methyl)phenyl)pyrrolidine-3-carboxamide] has an inhibition at 10 µM of 79% and an IC50 of 300 to 1000 nM.

`C=CC(=O)N1CCCCC1C(=O)Nc1cc(CNc2nc(NC3CCOCC3)nc3c(C(C)C)cnn23)ccc1F` (stereo not shown) [Compound 44, 1-acryloyl-N-(2-fluoro-5-(((8-isopropyl-2-((tetrahydro-2H-pyran-4-yl)amino)pyrazolo[1,5-a][1,3,5]triazin-4-yl)amino)methyl)phenyl)piperidine-2-carboxamide] showed an inhibition at 10 µM of 94% and an IC50 of under 300 nM.

Compound `C=CC(=O)N1CCCC(C(=O)Nc2cccc(C(C)Nc3nc(NC4CCOCC4)nc4c(C(C)C)cnn34)c2)C1` (stereo not shown) [Compound 45, 1-acryloyl-N-(3-(1-((8-isopropyl-2-((tetrahydro-2H-pyran-4-yl)amino)pyrazolo[1,5-a][1,3,5]triazin-4-yl)amino)ethyl)phenyl)piperidine-3-carboxamide] has an inhibition at 10 µM of 73% and an IC50 of over 1000 nM.

`C=CC(=O)N1CCN(C(=O)Oc2cccc(CNc3nc(NC4CCOCC4)nc4c(C(C)C)cnn34)c2)CC1` [Compound 46, 3-(((8-isopropyl-2-((tetrahydro-2H-pyran-4-yl)amino)pyrazolo[1,5-a][1,3,5]triazin-4-yl)amino)methyl)phenyl 4-acryloylpiperazine-1-carboxylate] gave an inhibition at 10 µM of 98% and an IC50 of under 300 nM.

In the case of `C=CC(=O)Nc1cccc(C(=O)Nc2cccc(CNc3nc(NC4CCOCC4)nc4c(C(C)C)cnn34)c2)c1` [Compound 47, 3-acrylamido-N-(3-(((8-isopropyl-2-((tetrahydro-2H-pyran-4-yl)amino)pyrazolo[1,5-a][1,3,5]triazin-4-yl)amino)methyl)phenyl)benzamide], the inhibition at 10 µM is reported as 100% and the IC50 is reported as under 300 nM.

In the case of `C=CC(=O)Nc1ccccc1C(=O)Nc1cccc(CNc2nc(NC3CCOCC3)nc3c(C(C)C)cnn23)c1` [Compound 48, 2-acrylamido-N-(3-(((8-isopropyl-2-((tetrahydro-2H-pyran-4-yl)amino)pyrazolo[1,5-a][1,3,5]triazin-4-yl)amino)methyl)phenyl)benzamide], the inhibition at 10 µM is reported as 98% and the IC50 is reported as under 300 nM.

With `C=CC(=O)Nc1cccc(C(=O)Nc2cccc(CNc3nc(NC4CCOCC4)nc4c(C(C)C)cnn34)c2)c1C` [Compound 48A, 3-acrylamido-N-(3-(((8-isopropyl-2-((tetrahydro-2H-pyran-4-yl)amino)pyrazolo[1,5-a][1,3,5]triazin-4-yl)amino)methyl)phenyl)-2-methylbenzamide] the IC50 was under 300 nM.

For `CC(C)c1cnn2c(NCc3cccc(NC/C=C/C(=O)N(C)C)c3)nc(NC3CCOCC3)nc12` [Compound 49, (E)-4-((3-(((8-isopropyl-2-((tetrahydro-2H-pyran-4-yl)amino)pyrazolo[1,5-a][1,3,5]triazin-4-yl)amino)methyl)phenyl)amino)-N,N-dimethylbut-2-enamide], the inhibition at 10 µM was 84% and the IC50 was over 1000 nM.

For `CCN(CC)C/C=C/C(=O)Nc1cccc(CNc2nc(NC3CCOCC3)nc3c(C(C)C)cnn23)c1` [Compound 50, (E)-4-(diethylamino)-N-(3-(((8-isopropyl-2-((tetrahydro-2H-pyran-4-yl)amino)pyrazolo[1,5-a][1,3,5]triazin-4-yl)amino)methyl)phenyl)but-2-enamide], the inhibition at 10 µM was 97% and the IC50 was under 300 nM.

Work on `CC(C)c1cnn2c(NCc3cccc(NC(=O)/C=C/CN4CCOCC4)c3)nc(NC3CCOCC3)nc12` [Compound 51, (E)-N-(3-(((8-isopropyl-2-((tetrahydro-2H-pyran-4-yl)amino)pyrazolo[1,5-a][1,3,5]triazin-4-yl)amino)methyl)phenyl)-4-morpholinobut-2-enamide] yielded an inhibition at 10 µM of 91% and an IC50 of 300 to 1000 nM.

`CCN1CCN(C/C=C/C(=O)Nc2cccc(CNc3nc(NC4CCOCC4)nc4c(C(C)C)cnn34)c2)CC1` [Compound 52, (E)-4-(4-ethylpiperazin-1-yl)-N-(3-(((8-isopropyl-2-((tetrahydro-2H-pyran-4-yl)amino)pyrazolo[1,5-a][1,3,5]triazin-4-yl)amino)methyl)phenyl)but-2-enamide] gave an inhibition at 10 µM of 96%.

`CC(C)c1cnn2c(NCc3cccc(NC(=O)/C=C/CN(C)C)c3)nc(NC3CCOCC3)nc12` [Compound 53, (E)-4-(dimethylamino)-N-(3-(((8-isopropyl-2-((tetrahydro-2H-pyran-4-yl)amino)pyrazolo[1,5-a][1,3,5]triazin-4-yl)amino)methyl)phenyl)but-2-enamide] showed an inhibition at 10 µM of 99% and an IC50 of under 300 nM.

In the case of `CC(C)c1cnn2c(NCc3cccc(NC(=O)/C=C/CN4CCCC4)c3)nc(NC3CCOCC3)nc12` [Compound 54, (E)-N-(3-(((8-isopropyl-2-((tetrahydro-2H-pyran-4-yl)amino)pyrazolo[1,5-a][1,3,5]triazin-4-yl)amino)methyl)phenyl)-4-(pyrrolidin-1-yl)but-2-enamide], the inhibition at 10 µM is reported as 98% and the IC50 is reported as under 300 nM.

`CC(C)c1cnn2c(NCc3cccc(NC(=O)/C=C/CN4CCCCC4)c3)nc(NC3CCOCC3)nc12` [Compound 55, (E)-N-(3-(((8-isopropyl-2-((tetrahydro-2H-pyran-4-yl)amino)pyrazolo[1,5-a][1,3,5]triazin-4-yl)amino)methyl)phenyl)-4-(piperidin-1-yl)but-2-enamide] showed an inhibition at 10 µM of 99% and an IC50 of under 300 nM.
